The text below walks through data of patent publication US6235891A, “Glucocorticoid receptor agonist and decreased PP5” (South Alabama Medical Science Foundation, priority 1999, dated 2001).

The test system of data set [1] is p53-defective T-24 human bladder carcinoma cells. In words: T-24 cell proliferation (cell counts). The following applies: p53-defective T-24 cells; dexamethasone single dose 100 nM, counted six days. In kind it is cell-based. The protocol:
(§1) The antiproliferative effect of dexamethasone correlates with the presence of wild type p53 and the expression of p21^Waf1/Cip1 mRNA. Referring to FIGS. 1A-1C, the effect of dexamethasone on cell proliferation in p53-defective T-24 human bladder carcinoma, p53-null TR9 human fibroblasts (Webster et al. 1993; Maiyar et al. 1996), and p53 wild-type A549 human lung carcinoma cells was determined by treating cells in log-phase growth with a single dose of 100 nM dexamethasone and counting the number of cells in treated (.cndot.) and untreated (.box-solid.) cultures for six consecutive days following treatment. Each point represents the mean of triplicate dishes with error bars representing SE. Under similar conditions, treatment with ISIS 15534, a potent inhibitor of PP5 gene expression, inhibited growth in A459 but not T-24 or TR9 cells (Zuo et al. 1998). Referring to FIG. 1D, a comparison of p21^Waf1/Cip1 (p21) and serum glucocorticoid inducible protein kinase (sgk) mRNA levels in p53 competent (Lanes 3, 4) and p53 deficient (Lanes 1, 2, 5, 6) cell cultures after dexamethasone treatment is shown. Cell cultures in logphase growth were treated with 100 nM dexamethasone (+) or vehicle alone as a control (-). After 24 hours total mRNA was prepared and analyzed for p21 and sgk mRNA levels by Northern analysis.

A further data set has as its system PP5 mRNA. Kind of data set: Northern blot analysis of PP5 mRNA expression in A549 cells. The class given is cell-based, human. The following applies: dexamethasone 0-100 nM, 24 hours.
Data set [2] relates to A549 cells. In words: A549 cell proliferation (viable cell counts). The class given is cell-based, human. The following applies: for Growth arrest: p53 wild-type A549 cells, dexamethasone single dose 100 nM, counted six days; for Decrease in proliferation compared to control: 300 nM. How it is done: A549 cells were treated with ISIS 15534 or its scrambled control, ISIS 15521 at a concentration of 300 nM. Each day for the next 5 days, viable cells were counted.
A549 cells were seeded in 12-well tissue culture plates at about 50% confluence in DMEM containing 10% fetal bovine serum. The next day, cells were treated with the PP5-specific antisense oligonucleotide, ISIS 15534, or its scrambled control, ISIS 15521, at a final concentration of 300 nM as described in Example 7. On each of the following 5 days, cultures from three wells of each treatment gruop were trypsinized, collected and counted. Cell viability was determined by trypan blue staining, and the results given are the mean of three independent experiments.
A549 cells were seeded in 12-well tissue culture plates at a density of 5.0×10^4 cell/dish. On the next day, the cells were treated with PP5 specific antisense oligonucleotides (ISIS 15534) or the scrambled mismatch control (ISIS 15521) at a final concentration of 300 nM as described above. On each of the next five days, the cell cultures were treated briefly with trypsin to detach the cells from the dish (three wells from each test group). The number of cells was then determined by counting using a hemacytometer. Cell viability was determined with trypan blue staining. The percentage of viable cells was calculated by dividing the number of cells excluding trypan blue by the total number of cells, and the results are reported as the mean +/- SD of data collected from three independent experiments.
as §1

The test system of data set [3] is p53-null TR9 human fibroblasts. In words: TR9 cell proliferation (cell counts). The class given is cell-based. The following applies: dexamethasone single dose 100 nM, counted six days. How it is done:
as §1

Data set [4] relates to GR luciferase reporter plasmid MMTV-luc. Kind of data set: MMTV-Luc glucocorticoid-responsive luciferase reporter assay in A549 cells. The class given is cell-based, human. The conditions noted are these: 300 nM ISIS 15534 without dexamethasone, dexamethasone ≥100 nM for 2 hours.
Method: Transfections and luciferase assays were conducted as described by Jones et al. (1996) using a mouse mammary tumor virus-luciferase reporter plasmid (MMTV-Luc). […] Briefly, A549 cells were transfected in serum-free medium with 1 μg MMTV-Luc plasmid DNA per 60 mm dish using 15 μg/ml Lipofectin. ODNs were added into the transfection media wherever applicable. After a 4-hour incubation, the medium was replaced with fresh complete culture medium, and the cells were cultured overnight. The cells were then treated with different amounts of dexamethasone for two hours. Cell extracts were prepared with reporter lysis buffer (Promega). […] Light production was measured for 20 seconds at 562 nm using a Monolight 2010 luminometer (Analytical Luminescence Lab., San Diego, Calif.). To control for difference in transfection efficiency, contransfections were performed with 1 μg of a plasmid encoding β-galactosidase controlled by the SV40 virus promoter (pSV-β-GAL). β-GAL activity was measured in 150 μl cell extracts using the β-Galactosidase Enzyme Assay System (Promega).
A549 cells were transiently transfected with GR luciferase reporter plasmid, MMTV-luc (Jones et al. 1996). […] The relative light units of the cell extract were calculated as an average of three independent experiments, performed in triplicate, and presented as relative luciferase activity with error bars indicating SD.
The test system of data set [5] is p21^Waf1/Cip1 mRNA. Kind of data set: Northern analysis of p21Waf1/Cip1 mRNA in T-24 cells. In kind it is cell-based, human. The conditions noted are these: dexamethasone 100 nM, 24 hours. The protocol: (§2) The cells were harvested, and total RNA was extracted with TRIzol® Reagent according to the methods of the manufacturer. Total RNA (20 μg) was fractionated on 1% agarose gels containing formaldehyde and transferred to DURLON-UV nylon membranes (Stratagene). Following UV cross-linking, the filters were hybridized with a [α^32 P]probe for human PP5. The human PP5 cDNA probe was generated from the full length coding region of PP5 and [α^32 P]-dATP was labeled with DECAprime® DNA Labeling Kit according to the manufacturer's protocol. […] Quantification of hybridization signals was achieved by analysis of the scanned autoradiograms using the NIH Image program (ImagePC). […]
(§3) The antiproliferative effect of dexamethasone correlates with the presence of wild type p53 and the expression of p21^Waf1/Cip1 mRNA. Referring to FIGS. 1A-1C, the effect of dexamethasone on cell proliferation in p53-defective T-24 human bladder carcinoma, p53-null TR9 human fibroblasts (Webster et al. 1993; Maiyar et al. 1996), and p53 wild-type A549 human lung carcinoma cells was determined by treating cells in log-phase growth with a single dose of 100 nM dexamethasone and counting the number of cells in treated (.cndot.) and untreated (.box-solid.) cultures for six consecutive days following treatment. […] After 24 hours total mRNA was prepared and analyzed for p21 and sgk mRNA levels by Northern analysis.

Data set [6] relates to p21^Waf1/Cip1 mRNA. In words: Northern analysis of p21Waf1/Cip1 mRNA in TR9 cells. The following applies: dexamethasone 100 nM, 24 hours. The class given is cell-based, human. How it is done: as §2, §3
In data set [7] the test system is p21^Waf1/Cip1 mRNA. In words: Northern analysis of p21Waf1/Cip1 mRNA in A549 cells. In kind it is cell-based, human. The conditions noted are these: dexamethasone 100 nM, 24 hours.
Method: The cells were harvested, and total RNA was extracted with TRIzol® Reagent according to the methods of the manufacturer. Total RNA (20 μg) was fractionated on 1% agarose gels containing formaldehyde and transferred to DURLON-UV nylon membranes (Stratagene). Following UV cross-linking, the filters were hybridized with a [α^32 P]probe for human PP5. […] Hybridization was performed in the presence of 50% formamide, 0.1 M Pipes, 0.8 M NaCl, 5×Denhardt's solution, 100 μg/ml denatured herring sperm DNA, 1×10^6 cpm/ml [α-^32 P]-labeled probe and 10% dextran sulfate at 42° C. for 16 hours. […] Quantification of hybridization signals was achieved by analysis of the scanned autoradiograms using the NIH Image program (ImagePC).
Referring to FIG. 1D, a comparison of p21^Waf1/Cip1 (p21) and serum glucocorticoid inducible protein kinase (sgk) mRNA levels in p53 competent (Lanes 3, 4) and p53 deficient (Lanes 1, 2, 5, 6) cell cultures after dexamethasone treatment is shown. […] After 24 hours total mRNA was prepared and analyzed for p21 and sgk mRNA levels by Northern analysis.
After 24 hours, 20 μg of total RNA was prepared and analyzed for serine/threonine protein phosphatase 5 (PP5), p21^Waf1/Cip1 (p21), and serum/glucocorticoid inducible kinase (sgk) mRNA levels. […]
Data set [8] deals with A549 cells. Kind of data set: [3H]-thymidine incorporation (DNA synthesis) in A549 cells. In kind it is cell-based, human. The conditions noted are these: 300 nM. How it is done:
Cells were pulse-labeled with [^3 H]-thymidine for 5 hours at intervals over the next five days. Cells were lysed and [^3 H]-thymidine incorporation (indicative of DNA synthesis) was determined by liquid scintillation counting.
At timed intervals during the next 5 days, cells were pulse-labeled with [^3 H]-thymidine (0.5 μCi/ml) for 5 hours. […] The results given are the mean of three independent experiments.
(In general: Dividing cells build labelled thymidine or BrdU into new DNA.)

For `C[C@@H]1C[C@H]2[C@@H]3CCC4=CC(=O)C=C[C@]4(C)[C@@]3(F)[C@@H](O)C[C@]2(C)[C@@]1(O)C(=O)CO` [dexamethasone, reference compound], the Growth arrest result in data set [1] is on record as “neither ISIS 15534 nor dexamethasone induced”; with A549 cells [2] it was “produced growth arrest”; in data set [3], “neither ISIS 15534 nor dexamethasone induced”. The “Expression of PP5 mRNA” value in the data set with PP5 mRNA is recorded as “does not appear to change”. For the same molecule, in the data set on A549 cells [2] (dexamethasone ≥100 nM), the “A549 cell growth when expression of p53 is suppressed with ISIS 8345” value was “partially inhibit”. The GR-reporter plasmid activation entry in data set [4] was “more pronounced”. Moreover, the “Expression of p21^Waf1/Cip1” value was “neither ISIS 15534 nor dexamethasone induced” in the data set with p21^Waf1/Cip1 mRNA [5], “neither ISIS 15534 nor dexamethasone induced” with p21^Waf1/Cip1 mRNA [6] and “concomitant increase in the expression of p21^Waf1/Cip1” in the data set on p21^Waf1/Cip1 mRNA [7].

As to “ISIS 15534: chimeric PP5 antisense oligonucleotide, P=O wings, P=S deoxy gap; GGGCCCTATTGCTTGAGTGG, SEQ ID NO: 12 (sugars by position and backbone not given here; chimeric, phosphodiester wings, phosphorothioate deoxy gap)”, the Growth arrest entry is reported as “neither ISIS 15534 nor dexamethasone induced” in data set [1], “produced growth arrest” in the data set with A549 cells [2] and “neither ISIS 15534 nor dexamethasone induced” in data set [3]. The “Decrease in proliferation compared to control” value with A549 cells [2] (day 2) is 55%; in the data set on A549 cells [2] (day 3), 75%; in the data set with A549 cells [2] (day 4), 89%; in the data set with A549 cells [2] (day 5), 55%. Further, the “Decrease in [3H]-thymidine incorporation compared to control” value is recorded as “approximately 85%” with A549 cells [8] (day 2), ~88% with A549 cells [8] (day 3) and ~62% with A549 cells [8] (day 4). Also, in the data set with A549 cells [8] (day 5), the “[3H]-thymidine incorporation relative to untreated cells” value was “approximately equivalent in treated and untreated cells”. For the same molecule, in [4], the GR-reporter plasmid activation result is given as “induces glucocorticoid-mediated transcriptional activation”. The “Expression of p21^Waf1/Cip1” value in the data set with p21^Waf1/Cip1 mRNA [5] is reported as “neither ISIS 15534 nor dexamethasone induced”; in the data set on p21^Waf1/Cip1 mRNA [6], “neither ISIS 15534 nor dexamethasone induced”; in the data set on p21^Waf1/Cip1 mRNA [7], “concomitant increase in the expression of p21^Waf1/Cip1”.
